Key:
LmDdi1_1–390 (LmDdi1) [1] = molecular target: T1, LmDdi1_1–390 (LmDdi1) (Leishmania major, UniProt I7HUG0); test: bio-layer interferometry, protein on Ni-NTA sensor, […] Langmuir global fit; assay type: binding; conditions: 20 mM MES pH 6.0, 200 mM NaCl, 1% DMSO; inhibitor 75-600 μM; weak signal, affinity could not be quantified
T1 construct: gene DDI1; full-length residues 1-390 (UBL, RVP and UBA domains), synthetic gene 1170 bp, N-terminal His6 tag (pET-28a, NdeI/HindIII), E. coli BL21; Ni-NTA and gel filtration; immobilised by the tag on Ni-NTA sensor; RVP domain homodimer in crystal; PDB 5YS4 from this construct, 5YQ8 from construct 184-390
T1 sequence (I7HUG0 1-390): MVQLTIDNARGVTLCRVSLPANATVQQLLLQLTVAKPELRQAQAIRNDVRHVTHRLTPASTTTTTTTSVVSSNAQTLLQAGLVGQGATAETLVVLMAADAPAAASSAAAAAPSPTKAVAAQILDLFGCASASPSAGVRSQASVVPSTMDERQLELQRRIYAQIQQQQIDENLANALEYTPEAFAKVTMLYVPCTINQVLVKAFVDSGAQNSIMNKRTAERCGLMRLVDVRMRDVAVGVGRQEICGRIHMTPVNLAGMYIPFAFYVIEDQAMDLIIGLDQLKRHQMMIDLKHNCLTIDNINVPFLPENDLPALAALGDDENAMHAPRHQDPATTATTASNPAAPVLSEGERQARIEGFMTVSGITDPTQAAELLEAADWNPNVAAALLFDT

LmDdi1_1–390 (LmDdi1) [2] = molecular target: T1, LmDdi1_1–390 (LmDdi1); test: as above; assay type: binding

SMILES | bio-layer interferometry, protein on Ni-NTA sensor, 1:1 Langmuir global fit (LmDdi1_1–390 (LmDdi1) [1]) | Kd (LmDdi1_1–390 (LmDdi1) [2])
Cc1c(O)cccc1C(=O)N[C@@H](CSc1ccccc1)[C@H](O)CN1C[C@H]2CCCC[C@H]2C[C@H]1C(=O)NC(C)(C)C [nelfinavir] | Nelfinavir showed much less binding, and the binding affinity could not be quantified | –
CC(C)(C)NC(=O)[C@@H]1C[C@@H]2CCCC[C@@H]2CN1C[C@@H](O)[C@H](Cc1ccccc1)NC(=O)[C@H](CC(N)=O)NC(=O)c1ccc2ccccc2n1 [saquinavir] | – | 314 ± 12.8 µM

— PMC6120238, “Crystal structure of the retroviral protease‐like domain of a protozoal DNA damage‐inducible 1 protein” (FEBS Open Bio, 2018)
